The values below come from publication PMC10482825 (Scientific Reports, 2023).

“And” between values parts separate entries of the source, which are not always exact repeats. Equal entries are not always repeated. Where a SMILES comes first, the peptide text is derived from it. Bounds are passed on as bounds.

Assay [1] has as its system the different tested pathogens. The assay is classed as cell-based. The conditions noted are these: span over tested pathogens, undetected values disregarded. From the text:
(§1) The microbial strains used in this study were Bacillus subtilis (ATCC, 11774), Candida albicans (TIMM, 1768), Enterococcus faecalis (ATCC, 33186), Escherichia coli (ATCC, 11775), Klebsiella pneumoniae (ATCC, 13883), Methicillin-resistant Staphylococcus aureus (ATCC, BAA-41), Pseudomonas aeruginosa (ATCC, 10145), Salmonella enterica (ATCC, 14028), Serratia marcescens (ATCC, 13880), Staphylococcus aureus (ATCC, 25923) and Vibrio parahaemolyticus (ATCC, 17802). All microbial strains were cultivated overnight at 37 °C and 200 rpm, then subcultured and incubated for 3 h under the same incubation conditions to obtain the mid-logarithmic growth phase. The cultivated cells were washed twice with 10 mM Tris–HCl containing 5 mM D-glucose at pH 7.4 and suspended in the same buffer to be used in different assays, as previously described.
As a conclusive quantitative assessment, broth microtiter assay was used to determine the MIC values of each cryptide against B. subtilis, MRSA, S. enterica, P. aeruginosa, V. parahaemolyticus and C. albicans by following the guidelines of the Clinical and Laboratory Standards Institute (CLSI)[67], with slight modifications. Eighty microliters of 5 × 10^4 CFU/ml of each pathogen were dispensed into a 96-well polypropylene microtiter plate. The wells were then treated with 20 µl of serially diluted cryptides for 3 h at 37 °C. Gentamicin was used for positive controls at 0.2 mg/ml while an equivalent volume of acidified water was used for negative controls. The plates were then topped up with a final concentration of 1 × Mueller Hinton Broth (MHB) and incubated for 18 h under the same incubation conditions. MIC was detected as the lowest concentration of each cryptide that prevents the optically detectable microbial growth at OD = 600 nm.

For assay [2], the system named is E. faecalis. Kind of assay: Radial diffusion assay. The assay is classed as cell-based, Enterococcus faecalis (ATCC, 33186). The conditions noted are these: 5 µl of 500 µM per 3 mm well, 37 °C, mean ± SD.
From the text: as §1
(§2) The antimicrobial activity spectra of the selected cryptides were screened against all the mentioned microbial pathogens, except V. parahaemolyticus, by radial diffusion assay as previously described, with slight modifications. […] The plates were then incubated for 18 h, and the antimicrobial activities were measured in the absolute unit (AU), as previously described. […]
(§3) plate. The plates were then incubated for 12 h at 37 °C and antimicrobial activities were measured in the term of absolute unit (A.U). […]

The test system of assay [3] is E. coli K-1. The assay can be described thus: Radial diffusion assay. The assay is classed as cell-based, Escherichia coli (ATCC, 11775). The conditions noted are these: 5 µl of 500 µM per 3 mm well, 37 °C, mean ± SD.
From the text: as §1, §2, §3

The subject of assay [4] is K. pneumoniae. Kind of assay: Radial diffusion assay. It counts as cell-based, Klebsiella pneumoniae (ATCC, 13883). The conditions noted are these: 5 µl of 500 µM per 3 mm well, 37 °C, mean ± SD.
From the text: as §1, §2, §3

Assay [5] has as its system S. enterica. The assay can be described thus: Radial diffusion assay. It counts as cell-based, Salmonella enterica (ATCC, 14028). The conditions noted are these: 5 µl of 500 µM per 3 mm well, 37 °C, mean ± SD.
From the text: as §1, §2, §3

Assay [6] concerns S. epidermidis. Kind of assay: Radial diffusion assay. The assay is classed as cell-based. The conditions noted are these: 5 µl of 500 µM per 3 mm well, 37 °C, mean ± SD.
From the text: The antimicrobial activity spectra of the selected cryptides were screened against all the mentioned microbial pathogens, except V. parahaemolyticus, by radial diffusion assay as previously described, with slight modifications. We aimed to test different categories of pathogens on the WHO global priority due to their growing resistance to the available antibiotics such as P. aeruginosa, E. coli and K. pneumoniae in the critical category and Salmonella ssp. and S. aureus in the high category. Briefly, a total of 4 × 10^6 CFU of each pathogen was inoculated in 10 mL of an underlay agarose gel [0.03% w/v tryptone soy broth (TSB) medium, 1% w/v agarose and 0.02% v/v Tween 20 in 10 mM Tris–HCl] that was then poured into a 100-mm petri dish. After agarose solidification, 3 mm-diameter wells were punched by a sterile cork borer and 5 µl of 500 µM stock solution from each cryptide was added to each well. Melittin and acidified water were used as positive and negative controls, respectively. […] The plates were then incubated for 18 h, and the antimicrobial activities were measured in the absolute unit (AU), as previously described. […]
as §3

For assay [7], the system named is P. aeruginosa. Kind of assay: Radial diffusion assay. It counts as cell-based, Pseudomonas aeruginosa (ATCC, 10145). The conditions noted are these: 5 µl of 500 µM per 3 mm well, 37 °C, mean ± SD.
From the text: as §1, §2, §3

Assay [8] concerns C. albicans. The assay can be described thus: Radial diffusion assay. The assay is classed as cell-based, Candida albicans (TIMM, 1768). The conditions noted are these: 5 µl of 500 µM per 3 mm well, 37 °C, mean ± SD.
From the text: as §1, §2, §3

In assay [9] the test system is V. parahaemolyticus. Kind of assay: Micro-broth dilution MIC / MBC. It counts as cell-based, Vibrio parahaemolyticus (ATCC, 17802). The conditions noted are these: 37 °C.
From the text: as §1
As a conclusive quantitative assessment, broth microtiter assay was used to determine the MIC values of each cryptide against B. subtilis, MRSA, S. enterica, P. aeruginosa, V. parahaemolyticus and C. albicans by following the guidelines of the Clinical and Laboratory Standards Institute (CLSI)[67], with slight modifications. […] MIC was detected as the lowest concentration of each cryptide that prevents the optically detectable microbial growth at OD = 600 nm.
(In general: In broth dilution the organism is exposed to a series of concentrations in liquid medium.)

Assay [10] has as its system MRSA mature biofilm. Kind of assay: Antibiofilm microtiter plate assay (mature biofilm, crystal violet). The assay is classed as cell-based, Methicillin-resistant Staphylococcus aureus (ATCC, BAA-41). The conditions noted are these: absorbance 600 nm, mean ± SD. As to the method: The antibiofilm activities of the selected cryptides against S. enterica and MRSA mature biofilms were examined by microtiter plate assay as previously described, with slight modification. During the mid-logarithmic phase, S. enterica and MRSA were suspended at the density of 1.7 × 10^8 CFU/ml in MHB. Then 100 µl of each bacterial suspension was dispensed into a vinyl 96 U-shaped-well plate and incubated overnight at 37 °C. The mature biofilms were washed with 10 mM Tris–HCl containing 5 mM D-glucose at pH 7.4 and treated for 8 h with 100 µl of two-fold serially diluted cryptides, under the same incubation conditions. A sterile MHB medium was used as the positive control while an equivalent volume of acidified water was used to treat the negative controls. The treated biofilms were washed twice with the same washing buffer and stained with 0.1% crystal violet for 15 min followed by rinsing with sterile distilled water twice and then dried for 30 min at 37 °C. The stain was dissolved with 33% acetic acid and transferred to an optically clear 96-well flat bottom plate which was then measured at 600 nm.
Table S.4 Antibiofilm activities of the selected Cryptides against S. enterica and MRSA. Microbial cells were suspended at 1.7 X 10^8 CFU/ml density, during the mid-logarithmic phase in MHB. Then, 96 U-shaped -well plates were inoculated with 100 µl of microbial suspension and incubated for 48 h at 37 °C. The formed biofilms were washed with 10 mM Tris-HCl and treated with 100 µl of different concentrations of each peptide for 24 h. The treated biomasses were washed and fixed with methanol for 15 min at -20 °C before staining with 0.1 % crystal violet. The stained biofilms were dissolved in 100 µl of 33 % acetic acid and the quantities of crystal violet stains were determined by measuring absorbance at 600 nm as an indicator of the remaining biomass after treatment. Untreated cells were used as negative control [indicating 100 % biofilm integrity] while the sterile medium was used as a positive control [indicating 0 % biofilm integrity].
S. enterica MRSA S. enterica MRSA S. enterica MRSA S. enterica MRSA S. enterica MRSA

As to `CC(C)C[C@H](NC(=O)[C@H](CCCNC(=N)N)NC(=O)[C@H](Cc1c[nH]c2ccccc12)NC(=O)[C@H](CCCNC(=N)N)NC(=O)[C@H](CC(C)C)NC(=O)[C@@H](N)Cc1ccccc1)C(=O)N[C@@H](CCCCN)C(=O)N[C@@H](Cc1ccccc1)C(=O)N[C@@H](CCCCN)C(=O)N[C@@H](CO)C(=O)N[C@@H](CCCCN)C(=O)N[C@H](C(=O)N[C@@H](Cc1c[nH]c2ccccc12)C(=O)N[C@@H](CS)C(=O)N1CCC[C@H]1C(=O)O)C(C)C` [AD7] (H-FLRWRLKFKSKVWCP-OH), in assay [1], the “MBC values, range against the different tested pathogens” value is reported as 0.39 ~ 25 µM and the “MIC values, range against the different tested pathogens” value is 0.39 ~ 6.25 µM.

For the compound “RHCLRSKRPPNVCPH [AD4, cationic cryptide from P. vannamei precursor DN34505 (Pl-crustin 2), chemically synthesised]”, the “Antimicrobial activity (inhibition zone) E. faecalis” value in assay [2] stood at 14.7 ± 1.2 A.U. In [3], the “Antimicrobial activity (inhibition zone) E. coli K-1” value is 7.7 ± 1 A.U. Besides, the “Antimicrobial activity (inhibition zone) K. pneumoniae” value in assay [4] worked out at 0 A.U. In addition, the “Antimicrobial activity (inhibition zone) S. enterica” value in [5] was 7.7 ± 1 A.U. The “Antimicrobial activity (inhibition zone) S. epidermidis” value in assay [6] came out at 9 ± 0 A.U. In addition, the “Antimicrobial activity (inhibition zone) P. aeruginosa” value in [7] worked out at 0 A.U. In [8], the “Antifungal activity (inhibition zone) C. albicans” value worked out at 2.1 ± 0.5 A.U. Moreover, the “MBC (µM) V. parahaemolyticus” value in [9] (20 µl of wells without growth on agar, 18 h) is on record as above 50 µM. For the same compound, the “MIC (µM) V. parahaemolyticus” value in [9] (micro-broth dilution, 3 h peptide treatment then MHB 18 h, OD 600 nm) is given as above 50 µM. Moreover, in assay [10], the “Biofilm eradication MRSA, 12.5 µM” value stood at 0%; the “Biofilm eradication MRSA, 25 µM” value amounted to 0.86 ± 3.1%; the “Biofilm eradication MRSA, 50 µM” value turned out to be 11.53 ±1.4%; the “Biofilm eradication MRSA, 100 µM” value is on record as 27.05 ±1.3%. Further, the “Biofilm eradication MRSA, 200 µM” value in [10] was 35.86 ± 2.5% and 35.8%.
